According to patent publication US20210145965A1, “METHOD OF USING CHECKPOINT KINASE INHIBITOR THERAPY TO MODULATE ANTI-TUMORAL RESPONSE AGAINST CANCER AND SENSITIZE GLIOMAS TO IMMUNOTHERAPY” (NORTHWESTERN UNIVERSITY, priority 2019, published 2021):

Key:
[1] = tested on: GL261 cells; assay: Percent viability of GL261 cells treated with TMZ or iCHEK1/2; format: cell-based, mouse
[2] = tested on: GL261 cells; assay: Western blot of DNA damage in GL261 cells; format: cell-based, mouse; conditions: 8 nM, 48 h of treatment, compared to TMZ or untreated GL261 cells
[3] = tested on: GL261 cells; assay: Expression of MHC-I and PDL1 in GL261 cells; format: cell-based, mouse; conditions: 8 nM, 3 cycles (48 h/cycle), compared to TMZ or untreated
[4] = tested on: GL261 intracranial gliomas; assay: PD1+ T cells in brain and spleen of GL261 intracranial tumor bearing mice by flow cytometry; format: in vivo, C57BL/6 mice; conditions: 10 mg/kg i.p. on 7th and 9th day, sacrificed on 13th day

| SMILES | concentration leading to a decrease in viability of glioma cells ([1]; treatment for 72 h) [µM] | concentration at which viability of the GL261 cells started to be affected [1] | DNA damage signal (western blot) [2] | expression of MHC-I (both MHC class and PDL1) [3] | activated T-cells pool in the peripheral compartment (spleen) [4] | percentage of PD1+ T cells in the brain ([4]; compared to TMZ or vehicle) |
| --- | --- | --- | --- | --- | --- | --- |
| Cn1nnc2c(C(N)=O)ncn2c1=O [TMZ, temozolomide] | 500 |  |  |  |  |  |
| COc1cccc(OCCCN)c1-c1cc(Nc2cnc(C#N)cn2)n[nH]1 [iCHEK1/2, Prexasertib] |  | less than 0.08 nM | intense signal of DNA damage | increased expression of MHC-I | no significant difference | decrease in the percentage of PD1+ T cells |
